Assay results taken from paper PMC4666645 (PLoS Pathogens, 2015).
“And” between values parts separate entries of the source, which are not always exact repeats. Equal values may be shown once. Where a name gives a salt, the structure may show the parent alone.

Assays:
Peq-26/27 receptor = Peq-26/27 receptor (Parascaris equorum, UniProt A0A0U2ES47+A0A0U2ES58); assay: cell-based; details: for Emax at 100 µM: read-out: Current elicited, % of ACh response
Experimental: In order to determine if ACR-26 and ACR-27 subunits from other parasitic nematodes species could also form functional receptors when expressed in Xenopus oocyte, Peq-acr-26 and Peq-acr-27 cRNAs from the distantly related P. equorum (Clade III) were co-injected in combination with Hco-ric-3.1, Hco-unc-74 and Hco-unc-50 cRNAs. Four days after injection, we observed robust expression of a functional AChR responding to 100 μM ACh (Fig 6B). […] This novel heteropentameric AChR was named Peq-26/27.
(§1) H. contortus and P. equorum acr-26 and acr-27 cDNAs were PCR-amplified using primers containing a restriction site in order to be sub-cloned into the expression vector pTB207 that is suitable for in vitro transcription. Primers are listed in S3 Table. The resulting plasmids were linearized with the NheI restriction enzyme (Fermantas) and used as templates for cRNA synthesis using the T7 mMessage mMachine kit (Ambion). Xenopus laevis ovaries were obtained from the University of Rennes, France (CRB Xenope) and defolliculated using 2 mg/ml collagenase type II (Gibco) in the incubation solution containing: 100 mM NaCl, 2 mM KCl, 1.8 mM CaCl2.2H2O, 1 mM MgCl2.6H2O, 5 mM HEPES, 2.5 mM C3H3NaO3, pH 7.5, supplemented with penicillin 100 U/mL and streptomycin 100 μg/mL). The oocytes were injected in the animal pole with a total volume of 36 nL of cRNA mix containing 50 ng/μL of each cRNA in RNase-free water using the Drummond nanoject II microinjector. Microinjected oocytes were kept at 20°C in incubation medium for 4 days to allow the receptors expression. Two-electrode voltage-clamp recordings were carried out using an Oocyte Clamp OC-725C amplifier (Warner instrument) in oocytes being voltage-clamped at -60mV. All agonist preparations were prepared with recording buffer (100 mM NaCl, 2.5 mM KCl, 1 mM CaCl2.2H2O, 5 mM HEPES, pH 7.3). Currents were recorded and analyzed using the pCLAMP 10.4 package (Molecular Devices).

[1] = target: Hco-L-AChR-1 (Hco-UNC-38, Hco-UNC-63, Hco-UNC-29.1, Hco-ACR-8) (Haemonchus contortus, UniProt A9XX24+D6MYE9+D6MYF3+D6MYF4); assay: Two-electrode voltage-clamp on Xenopus oocytes expressing Hco-L-AChR-1; format: cell-based; details: for Response to agonist: 100 μM agonist
Chain of Hco-L-AChR-1 (Hco-UNC-38, Hco-UNC-63, Hco-UNC-29.1, Hco-ACR-8) (D6MYF3 20-512): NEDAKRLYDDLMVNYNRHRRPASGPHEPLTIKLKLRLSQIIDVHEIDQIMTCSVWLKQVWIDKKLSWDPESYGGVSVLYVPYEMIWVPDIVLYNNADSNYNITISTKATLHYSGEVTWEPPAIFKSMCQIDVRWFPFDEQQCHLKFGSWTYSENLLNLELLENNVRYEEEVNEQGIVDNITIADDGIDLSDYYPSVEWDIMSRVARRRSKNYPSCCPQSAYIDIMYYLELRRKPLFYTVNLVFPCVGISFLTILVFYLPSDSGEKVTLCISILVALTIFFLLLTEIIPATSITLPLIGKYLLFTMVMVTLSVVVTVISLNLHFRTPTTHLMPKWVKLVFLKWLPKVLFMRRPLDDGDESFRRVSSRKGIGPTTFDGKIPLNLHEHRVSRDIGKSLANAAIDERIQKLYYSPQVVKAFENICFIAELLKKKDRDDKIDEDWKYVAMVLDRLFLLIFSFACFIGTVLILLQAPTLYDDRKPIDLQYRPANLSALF
Chain of Hco-L-AChR-1 (Hco-UNC-38, Hco-UNC-63, Hco-UNC-29.1, Hco-ACR-8) (D6MYF4 22-504): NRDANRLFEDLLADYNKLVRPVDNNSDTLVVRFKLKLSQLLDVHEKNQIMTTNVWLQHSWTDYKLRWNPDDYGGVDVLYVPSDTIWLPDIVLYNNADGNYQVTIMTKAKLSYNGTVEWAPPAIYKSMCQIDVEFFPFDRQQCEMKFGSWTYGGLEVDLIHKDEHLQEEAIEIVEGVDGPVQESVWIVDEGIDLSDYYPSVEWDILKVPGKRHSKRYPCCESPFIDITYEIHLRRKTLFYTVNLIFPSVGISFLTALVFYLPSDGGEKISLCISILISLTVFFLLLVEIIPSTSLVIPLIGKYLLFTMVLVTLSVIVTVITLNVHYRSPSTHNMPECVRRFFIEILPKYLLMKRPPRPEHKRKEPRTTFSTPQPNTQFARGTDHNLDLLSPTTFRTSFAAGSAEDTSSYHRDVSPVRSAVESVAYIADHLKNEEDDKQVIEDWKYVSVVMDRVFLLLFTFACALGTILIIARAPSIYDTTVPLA
Chain of Hco-L-AChR-1 (Hco-UNC-38, Hco-UNC-63, Hco-UNC-29.1, Hco-ACR-8) (D6MYE9 21-498): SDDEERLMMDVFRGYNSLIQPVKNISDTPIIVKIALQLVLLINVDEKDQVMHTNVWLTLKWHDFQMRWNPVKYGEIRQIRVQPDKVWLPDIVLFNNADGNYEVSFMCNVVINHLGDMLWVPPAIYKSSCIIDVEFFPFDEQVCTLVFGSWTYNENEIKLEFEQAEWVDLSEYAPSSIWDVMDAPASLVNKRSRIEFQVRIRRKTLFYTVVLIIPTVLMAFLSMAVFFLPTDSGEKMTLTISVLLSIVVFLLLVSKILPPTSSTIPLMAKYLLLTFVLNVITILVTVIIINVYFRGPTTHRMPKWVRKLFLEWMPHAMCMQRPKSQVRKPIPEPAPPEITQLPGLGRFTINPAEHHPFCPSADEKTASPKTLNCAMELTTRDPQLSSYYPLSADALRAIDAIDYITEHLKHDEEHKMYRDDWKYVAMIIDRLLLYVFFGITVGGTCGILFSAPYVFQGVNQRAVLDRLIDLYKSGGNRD
Chain of Hco-L-AChR-1 (Hco-UNC-38, Hco-UNC-63, Hco-UNC-29.1, Hco-ACR-8) (A9XX24 19-536): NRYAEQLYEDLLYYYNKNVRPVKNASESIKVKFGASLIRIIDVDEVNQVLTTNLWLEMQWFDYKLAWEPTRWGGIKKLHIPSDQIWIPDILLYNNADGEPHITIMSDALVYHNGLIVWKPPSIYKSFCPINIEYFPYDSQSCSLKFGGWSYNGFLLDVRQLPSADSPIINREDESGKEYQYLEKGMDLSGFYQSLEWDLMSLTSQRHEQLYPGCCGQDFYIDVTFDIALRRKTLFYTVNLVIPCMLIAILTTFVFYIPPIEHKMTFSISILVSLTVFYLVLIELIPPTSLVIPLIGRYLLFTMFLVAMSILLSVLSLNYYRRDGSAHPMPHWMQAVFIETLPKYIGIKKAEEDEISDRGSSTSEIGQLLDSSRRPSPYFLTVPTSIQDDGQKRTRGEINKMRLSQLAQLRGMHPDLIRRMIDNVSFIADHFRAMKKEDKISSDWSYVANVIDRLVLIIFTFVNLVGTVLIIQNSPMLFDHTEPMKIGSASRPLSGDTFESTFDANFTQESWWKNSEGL
From the text: as §1
Supplementary file ppat.1005267.s003.tif: S3 Fig Pharmacological profiles of Hco-L-AChR-1 and Hco-L-AChR-2. […] The bars indicate the time period of the agonist application. Functional expression of Hco-L-AChR-1 requires the co-expression of Hco-UNC-38; Hco-UNC-63; Hco-UNC-29.1 and Hco-ACR-8 AChR subunits with the ancillary proteins Hco-RIC-3.1; Hco-UNC-50 and Hco-UNC-74 whereas Hco-L-AChR-2 requires the co-expression of Hco-UNC-38; Hco-UNC-63 and Hco-UNC-29.1 AChR subunits with the ancillary proteins Hco-RIC-3.1; Hco-UNC-50 and Hco-UNC-74. (C) Scatter plot (mean ± SEM) of normalized currents elicited by 100 μM Mor on Hco-26/27, Hco-L-AChR-1 and Hco-L-AChR-2. Currents have been normalized to and compared with 100 μM ACh elicited currents. Paired Student’s t-test, ***p<0.001. (D) Dose-response relationships of Hco-L-AChR-1 (black circle, n = 7) and Hco-L-AChR-2 (blue squares, n = 9) for Mor. Responses are normalized to 300 μM ACh elicited currents as described in Boulin et al.. […] (TIF) Click here for additional data file.

Chain of Peq-26/27 receptor (A0A0U2ES58 entry or part of it): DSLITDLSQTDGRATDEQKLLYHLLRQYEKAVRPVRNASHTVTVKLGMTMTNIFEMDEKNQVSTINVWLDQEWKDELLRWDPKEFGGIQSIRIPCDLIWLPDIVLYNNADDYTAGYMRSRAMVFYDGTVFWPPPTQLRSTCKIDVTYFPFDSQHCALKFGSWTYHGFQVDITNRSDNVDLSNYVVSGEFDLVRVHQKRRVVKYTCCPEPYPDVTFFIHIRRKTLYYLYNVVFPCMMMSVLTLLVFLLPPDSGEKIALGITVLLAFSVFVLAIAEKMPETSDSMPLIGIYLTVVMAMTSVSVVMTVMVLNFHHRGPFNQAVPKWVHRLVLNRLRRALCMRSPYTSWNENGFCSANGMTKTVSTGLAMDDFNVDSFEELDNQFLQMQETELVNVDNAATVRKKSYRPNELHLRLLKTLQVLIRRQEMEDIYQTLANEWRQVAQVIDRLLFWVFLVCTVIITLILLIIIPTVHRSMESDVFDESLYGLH
Chain of Peq-26/27 receptor (A0A0U2ES47 entry or part of it): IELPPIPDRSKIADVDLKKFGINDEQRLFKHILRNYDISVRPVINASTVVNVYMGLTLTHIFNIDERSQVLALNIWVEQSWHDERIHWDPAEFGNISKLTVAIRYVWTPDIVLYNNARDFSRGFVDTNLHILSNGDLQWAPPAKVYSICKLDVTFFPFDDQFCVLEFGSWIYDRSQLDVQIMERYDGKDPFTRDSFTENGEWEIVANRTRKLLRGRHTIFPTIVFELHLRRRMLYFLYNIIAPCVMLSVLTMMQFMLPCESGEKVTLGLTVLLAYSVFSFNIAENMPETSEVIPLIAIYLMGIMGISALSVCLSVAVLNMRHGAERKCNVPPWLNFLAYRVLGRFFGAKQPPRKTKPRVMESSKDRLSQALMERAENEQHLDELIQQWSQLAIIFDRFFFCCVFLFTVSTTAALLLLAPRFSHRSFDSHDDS

With `c1ccc([C@H]2CN3CCSC3=N2)cc1` [Lev, (-)-tetramisole hydrochloride] the EC50 (Peq-26/27 receptor; EC50, responses normalized to 1 mM ACh) was 16.7 µM and 17 µM, the Emax at 100 µM (Peq-26/27 receptor) was 24.5 ± 2.4% and the “Response to agonist” value [1] was “very responsive”.

With `Cc1ccsc1/C=C/C1=NCCCN1C` [Mor, morantel] the Emax at 100 µM (Peq-26/27 receptor) was 74.5 ± 4.9%, the “Concentrations with potential channel-block effect” value [1] was “above 30 μM” and the EC50 [1] was 0.41 ± 0.23 µM. The “Response to agonist” value [1] was “weak response”.

Work on `CN1CCCN=C1/C=C/c1cccs1` [Pyr, pyrantel] yielded an Emax at 100 µM (Peq-26/27 receptor) of 21.8 ± 2.1%.
